From article PMC6839502 (Journal of Alzheimer's Disease, 2019)

Experiment: Safety and tolerability
Type: in vivo, human
[1] = 5 mg QD 14 days, healthy adults, 8 evaluable
[2] = 15 mg QD 14 days, healthy adults, 8 evaluable
[3] = 50 mg QD 14 days, healthy adults, 8 evaluable
[4] = 50 mg QD 14 days, healthy older subjects, 10 evaluable
[5] = 125 mg QD 14 days, healthy adults, 12 evaluable
[6] = 125 mg QD 14 days, healthy older subjects, 8 evaluable
[7] = 275 mg QD 14 days, healthy adults, 9 evaluable
[8] = single 3 mg, healthy adults, 5 evaluable
[9] = single 12 mg, healthy adults, 6 evaluable
[10] = single 40 mg, healthy adults, 6 evaluable
[11] = single 160 mg, healthy adults, 6 evaluable
[12] = single 200 mg fed, healthy adults, 6 evaluable
[13] = single 200 mg, healthy adults, 6 evaluable
[14] = single 400 mg, healthy adults, 6 evaluable
[15] = single 540 mg, healthy adults, 6 evaluable
[16] = studies B8271001 and B8271004 overall

C[C@H]1C[C@H]2CSC(N)=N[C@@]2(c2nc(NC(=O)c3ccc(OC(F)F)cn3)cs2)CO1 [PF-06751979]
Back pain, all-causality [1]: 0
Fatigue (MedDRA preferred term), all-causality [1]: 0
Headache (MedDRA preferred term), all-causality [1]: 0
Hepatic enzyme increased, all-causality [1]: 0
Insomnia, all-causality [1]: 0
Musculoskeletal discomfort, all-causality [1]: 0
Number of AEs, all-causality treatment-emergent [1]: 1 (1)
Number of AEs, treatment related [1]: 1 (1)
Number of subjects with AEs, all-causality [1]: 1 (1)
Number of subjects with AEs, treatment related [1]: 1 (1)
Number of subjects with SAEs [1]: 0
Number of subjects with discontinuation due to AEs [1]: 0
Number of subjects with severe AEs [1]: 0
Number of subjects with temporary discontinuation or dose reduction due to AEs [1]: 0
Paresthesia, all-causality [1]: 0
Procedural pain, all-causality [1]: 0
Back pain, all-causality [2]: 0
Fatigue (MedDRA preferred term), all-causality [2]: 0
Headache (MedDRA preferred term), all-causality [2]: 1 (1)
Headache, treatment related [2]: 1 (1)
Hepatic enzyme increased, all-causality [2]: 1 (1)
Hepatic enzyme increased, treatment related [2]: 1 (1)
Insomnia, all-causality [2]: 0
Musculoskeletal discomfort, all-causality [2]: 0
Number of AEs, all-causality treatment-emergent [2]: 2 (2)
Number of AEs, treatment related [2]: 2 (2)
Number of subjects with AEs, all-causality [2]: 2 (2)
Number of subjects with AEs, treatment related [2]: 2 (2)
Number of subjects with SAEs [2]: 0
Number of subjects with discontinuation due to AEs [2]: 0
Number of subjects with severe AEs [2]: 0
Number of subjects with temporary discontinuation or dose reduction due to AEs [2]: 0
Paresthesia, all-causality [2]: 0
Procedural pain, all-causality [2]: 0
ALT peak, one subject (15 mg QD, Day 21): 7.7 ×ULN
AST peak, one subject (15 mg QD, Day 21): 5.6 ×ULN
Back pain, all-causality [3]: 0
Fatigue (MedDRA preferred term), all-causality [3]: 0
Headache (MedDRA preferred term), all-causality [3]: 0
Hepatic enzyme increased, all-causality [3]: 0
Insomnia, all-causality [3]: 0
Musculoskeletal discomfort, all-causality [3]: 0
Number of AEs, all-causality treatment-emergent [3]: 1 (1)
Number of AEs, treatment related [3]: 1 (1)
Number of subjects with AEs, all-causality [3]: 1 (1)
Number of subjects with AEs, treatment related [3]: 1 (1)
Number of subjects with SAEs [3]: 0
Number of subjects with discontinuation due to AEs [3]: 0
Number of subjects with severe AEs [3]: 0
Number of subjects with temporary discontinuation or dose reduction due to AEs [3]: 0
Paresthesia, all-causality [3]: 0
Procedural pain, all-causality [3]: 0
Abnormal dreams, all-causality [4]: 2 (2)
Abnormal dreams, treatment related [4]: 2 (2)
Dizziness, all-causality [4]: 1
Dizziness, treatment related [4]: 0
Fatigue (MedDRA preferred term), all-causality [4]: 1 (1)
Fatigue, treatment related [4]: 1 (1)
Headache (MedDRA preferred term), all-causality [4]: 1
Headache, treatment related [4]: 0
Number of AEs, all-causality treatment-emergent [4]: 15
Number of AEs, treatment related [4]: 9
Number of subjects with AEs, all-causality [4]: 7
Number of subjects with AEs, treatment related [4]: 6
Number of subjects with SAEs [4]: 0
Number of subjects with discontinuation due to AEs [4]: 0
Number of subjects with severe AEs [4]: 0
Number of subjects with temporary discontinuation or dose reduction due to AEs [4]: 0
Back pain, all-causality [5]: 2
Back pain, treatment related [5]: 0
Fatigue (MedDRA preferred term), all-causality [5]: 2 (2)
Fatigue, treatment related [5]: 2 (2)
Headache (MedDRA preferred term), all-causality [5]: 3
Headache, treatment related [5]: 1
Hepatic enzyme increased, all-causality [5]: 1
Hepatic enzyme increased, treatment related [5]: 0
Insomnia, all-causality [5]: 1 (1)
Insomnia, treatment related [5]: 1 (1)
Musculoskeletal discomfort, all-causality [5]: 3
Musculoskeletal discomfort, treatment related [5]: 0
Number of AEs, all-causality treatment-emergent [5]: 22
Number of AEs, treatment related [5]: 6
Number of subjects with AEs, all-causality [5]: 10
Number of subjects with AEs, treatment related [5]: 4
Number of subjects with SAEs [5]: 0
Number of subjects with discontinuation due to AEs [5]: 0
Number of subjects with severe AEs [5]: 0
Number of subjects with temporary discontinuation or dose reduction due to AEs [5]: 0
Paresthesia, all-causality [5]: 1
Paresthesia, treatment related [5]: 0
Procedural pain, all-causality [5]: 2
Procedural pain, treatment related [5]: 0
Abnormal dreams, all-causality [6]: 0
Dizziness, all-causality [6]: 0
Fatigue (MedDRA preferred term), all-causality [6]: 1 (1)
Fatigue, treatment related [6]: 1 (1)
Headache (MedDRA preferred term), all-causality [6]: 1 (1)
Headache, treatment related [6]: 1 (1)
Number of AEs, all-causality treatment-emergent [6]: 11
Number of AEs, treatment related [6]: 7
Number of subjects with AEs, all-causality [6]: 6
Number of subjects with AEs, treatment related [6]: 5
Number of subjects with SAEs [6]: 0
Number of subjects with discontinuation due to AEs [6]: 0
Number of subjects with severe AEs [6]: 0
Number of subjects with temporary discontinuation or dose reduction due to AEs [6]: 0
Back pain, all-causality [7]: 0
Fatigue (MedDRA preferred term), all-causality [7]: 0
Headache (MedDRA preferred term), all-causality [7]: 1
Headache, treatment related [7]: 0
Hepatic enzyme increased, all-causality [7]: 1 (1)
Hepatic enzyme increased, treatment related [7]: 1 (1)
Insomnia, all-causality [7]: 0
Musculoskeletal discomfort, all-causality [7]: 2
Musculoskeletal discomfort, treatment related [7]: 0
Number of AEs, all-causality treatment-emergent [7]: 18
Number of AEs, treatment related [7]: 13
Number of subjects with AEs, all-causality [7]: 8
Number of subjects with AEs, treatment related [7]: 7
Number of subjects with SAEs [7]: 0
Number of subjects with discontinuation due to AEs [7]: 1 (1)
Number of subjects with discontinuation due to AEs, treatment related [7]: 1 (1)
Number of subjects with severe AEs [7]: 0
Number of subjects with temporary discontinuation or dose reduction due to AEs [7]: 0
Paresthesia, all-causality [7]: 1 (1)
Paresthesia, treatment related [7]: 1 (1)
Procedural pain, all-causality [7]: 0
Rash leading to discontinuation, one subject (275 mg QD, 6 h post-dose on Day 11, deemed treatment related): moderate maculopapular rash
AST elevation, one subject (275 mg QD, Day 14, after discontinuation on Day 11): 1.15 x ULN
Fatigue (MedDRA preferred term), all-causality [8]: 0
Headache (MedDRA preferred term), all-causality [8]: 0
Number of AEs, all-causality treatment-emergent [8]: 1
Number of AEs, treatment related [8]: 0
Number of subjects with AEs, all-causality [8]: 1
Number of subjects with AEs, treatment related [8]: 0
Number of subjects with SAEs [8]: 0
Number of subjects with discontinuation due to AEs [8]: 0
Number of subjects with severe AEs [8]: 0
Number of subjects with temporary discontinuation or dose reduction due to AEs [8]: 0
Fatigue (MedDRA preferred term), all-causality [9]: 0
Headache (MedDRA preferred term), all-causality [9]: 0
Number of AEs, all-causality treatment-emergent [9]: 0
Number of subjects with AEs, all-causality [9]: 0
Number of subjects with SAEs [9]: 0
Number of subjects with discontinuation due to AEs [9]: 0
Number of subjects with severe AEs [9]: 0
Number of subjects with temporary discontinuation or dose reduction due to AEs [9]: 0
Fatigue (MedDRA preferred term), all-causality [10]: 0
Headache (MedDRA preferred term), all-causality [10]: 0
Number of AEs, all-causality treatment-emergent [10]: 0
Number of subjects with AEs, all-causality [10]: 0
Number of subjects with SAEs [10]: 0
Number of subjects with discontinuation due to AEs [10]: 0
Number of subjects with severe AEs [10]: 0
Number of subjects with temporary discontinuation or dose reduction due to AEs [10]: 0
Fatigue (MedDRA preferred term), all-causality [11]: 0
Headache (MedDRA preferred term), all-causality [11]: 0
Number of AEs, all-causality treatment-emergent [11]: 0
Number of subjects with AEs, all-causality [11]: 0
Number of subjects with SAEs [11]: 0
Number of subjects with discontinuation due to AEs [11]: 0
Number of subjects with severe AEs [11]: 0
Number of subjects with temporary discontinuation or dose reduction due to AEs [11]: 0
Fatigue (MedDRA preferred term), all-causality [12]: 1 (1)
Fatigue, treatment related [12]: 1 (1)
Headache (MedDRA preferred term), all-causality [12]: 0
Number of AEs, all-causality treatment-emergent [12]: 7
Number of AEs, treatment related [12]: 4
Number of subjects with AEs, all-causality [12]: 4 (4)
Number of subjects with AEs, treatment related [12]: 4 (4)
Number of subjects with SAEs [12]: 0
Number of subjects with discontinuation due to AEs [12]: 0
Number of subjects with severe AEs [12]: 0
Number of subjects with temporary discontinuation or dose reduction due to AEs [12]: 0
Fatigue (MedDRA preferred term), all-causality [13]: 2 (2)
Fatigue, treatment related [13]: 2 (2)
Headache (MedDRA preferred term), all-causality [13]: 0
Number of AEs, all-causality treatment-emergent [13]: 5
Number of AEs, treatment related [13]: 3
Number of subjects with AEs, all-causality [13]: 3 (3)
Number of subjects with AEs, treatment related [13]: 3 (3)
Number of subjects with SAEs [13]: 0
Number of subjects with discontinuation due to AEs [13]: 0
Number of subjects with severe AEs [13]: 0
Number of subjects with temporary discontinuation or dose reduction due to AEs [13]: 0
Fatigue (MedDRA preferred term), all-causality [14]: 0
Headache (MedDRA preferred term), all-causality [14]: 1 (1)
Headache, treatment related [14]: 1 (1)
Number of AEs, all-causality treatment-emergent [14]: 5 (5)
Number of AEs, treatment related [14]: 5 (5)
Number of subjects with AEs, all-causality [14]: 2 (2)
Number of subjects with AEs, treatment related [14]: 2 (2)
Number of subjects with SAEs [14]: 0
Number of subjects with discontinuation due to AEs [14]: 0
Number of subjects with severe AEs [14]: 0
Number of subjects with temporary discontinuation or dose reduction due to AEs [14]: 0
Fatigue (MedDRA preferred term), all-causality [15]: 0
Headache (MedDRA preferred term), all-causality [15]: 2 (2)
Headache, treatment related [15]: 2 (2)
Number of AEs, all-causality treatment-emergent [15]: 10
Number of AEs, treatment related [15]: 6
Number of subjects with AEs, all-causality [15]: 6
Number of subjects with AEs, treatment related [15]: 3
Number of subjects with SAEs [15]: 0
Number of subjects with discontinuation due to AEs [15]: 0
Number of subjects with severe AEs [15]: 0
Number of subjects with temporary discontinuation or dose reduction due to AEs [15]: 0
Findings in ECGs or vital signs (studies B8271001 and B8271004): no clinically meaningful findings
SAEs or deaths [16]: no SAEs or deaths were reported
Severity of TEAEs [16]: mild to moderate
